Values of other authors in US20150065582A1, “Orally Dissolving Formulations of Memantine” (Forest Laboratories Holdings Limited, priority 2006, published 2015).
Counter-ions that a name gives are not always drawn.

Experiments:
[1] = oral administration of immediate release tablets

SMILES	solubility (classification)	absolute bioavailability [1]
CC12CC3CC(C)(C1)CC(N)(C3)C2 [Memantine HCl]	highly soluble	–
CC12CC3CC(C)(C1)CC(N)(C3)C2 [memantine, 1-amino-3,5-dimethyl adamantane]	–	approximately 100%
